According to paper PMC4552634, “A New Set of Chemical Starting Points with Plasmodium falciparum Transmission-Blocking Potential for Antimalarial Drug Discovery” (PLoS ONE, 2015):
Read-outs that look alike come from different tables or passages of the source.

How the values were obtained:
[1] = system: P. falciparum stage V gametocytes; assay: microbe, parasite or virus in culture; parameters: BacTiter-Glo ATP luminescence viability of purified stage V gametocytes in 384-well plates, per cent inhibition versus DMSO
[2] = system: P. falciparum stage V gametocytes; assay: Gametocytocidal ATP bioluminescence assay (single point 5 μM and 1 μM, dose-response); type: cell-based, Plasmodium falciparum; conditions: for Ratio IC50 HepG2/IC50 P. falciparum: IC50 HepG2 divided by IC50 P. falciparum gametocytes
Protocol: Purified stage IV-V gametocytes were obtained as previously described [10]. Single point ATP bioluminescence assay and dose–response of positive hits was determined in accordance with the previously published protocol [10].

HepG2 cells = assay: Cytotoxicity in HepG2 cells (intracellular ATP, ATPlite, 48 h); type: cell-based, human; conditions: HepG2 cells; IC50 per ratio column head; unit inferred
Protocol: Cells were grown and maintained in EMEM (Sigma-Aldrich) supplemented with 2mM L-glutamine (Sigma-Aldrich) and 10% fetal calf serum (Perbio). […] Passages were routinely made upon reaching 80–90% confluence. For cytotoxicity experiments, cells were seeded onto 96-well clear bottom black plates coated with type I collagen (Biocoat, Becton Dickinson) at a cell density of 20,000 cells/well.
To determine cytotoxic effects, represented by the Tox50 value (the concentration of drug that reduces cell viability by 50%), cells were exposed to serial dilutions of compounds for 48 h at 37°C. The assay medium was as previously described, but supplemented with 5% fetal calf serum instead of 10%. […] In the presence of ATP, luminescence is emitted as the reaction described earlier for the BacTiter-Glo kit. Percentages of inhibition were calculated relative to vehicle control wells.

[3] = system: P. falciparum asexual stages; conditions: asexual stages; TCAMS data; read-out: IC50 asexual; cited from earlier work
[4] = Plasmodium falciparum, 48 h, read-out: % Inhibition
[5] = Plasmodium falciparum, 48 h; read-out: % Inhibition
[6] = P. falciparum gametocytes, average, read-out: IC50 Pf Gametocytes average, IC50 (µM) average
[7] = sexual stages (gametocytes), dose-response, read-out: IC50 sexual

Row | Compound | inhibition at 5 µM [1, 4] [%] | Ratio IC50 HepG2/IC50 P. falciparum [2] | IC50 [2, 6] [µM] | IC50 (HepG2 cells) [nM] | IC50 [3] [nM] | further results
1 | COc1ccc2nccc(NN=Cc3ccccc3F)c2c1 [TCMDC-142130] | 6.1 | – | – | – | – | –
2 | CCN(CC)CCCC(C)Nc1c(-c2ccc(OC)cc2)cnc2ccccc12 (stereo not shown) [TCMDC-142265] | 36.6 | – | – | – | – | –
3 | Cc1cc(NN=Cc2ccccc2)c2cc(F)ccc2n1 [TCMDC-142175] | -16.9 | – | – | – | – | –
4 | COc1ccc(C=NNc2cc(C)nc3ccccc23)c(OC)c1 [TCMDC-142196] | 98.4 | – | – | – | – | –
5 | CCOc1ccc2c(NN=Cc3cccc(F)c3)cc(C)nc2c1 [TCMDC-142194] | -6.63 | – | – | – | – | –
6 | Cc1ccccc1C1=CCN(CCCN2c3ccccc3Sc3ccc(Cl)cc32)CC1 [TCMDC-142249] | 53.4 | – | – | – | – | –
7 | CC(C)OC(=O)c1ccccc1S(N)(=O)=O [TCMDC-142262] | -12.6 | – | – | – | – | –
8 | COc1ccc2nc3cc(Cl)ccc3c(Nc3ccc(O)c(CNC(C)C)c3)c2c1 [TCMDC-142278] | 57.9 | – | – | – | – | –
9 | COc1cccc2c(Oc3ccccc3C)ccnc12 [TCMDC-142320] | -32.5 | – | – | – | – | –
10 | CC(C)c1cc(Oc2c(I)cc(CCN=C(N)N)cc2I)ccc1O [TCMDC-142299] | 38.1 | – | – | – | – | –
11 | COc1ccccc1-c1nc2nc(N)nc(N)c2nc1-c1ccccc1OC [TCMDC-142250] | 16.7 | – | – | – | – | –
12 | Fc1ccc2nccc(NN=CC=Cc3ccccc3)c2c1 [TCMDC-142123] | -73.4 | – | – | – | – | –
13 | CON(CCCN(C)C)C(=N)N [TCMDC-142297] | 12.5 | – | – | – | – | –
14 | Nc1cc(-c2ccc3ccccc3c2)nc2ccccc12 [TCMDC-142281] | 1.22 | – | – | – | – | –
15 | CCOc1ccc2c(NN=Cc3cc(OC)c(OC)cc3OC)cc(C)nc2c1 [TCMDC-142207] | 101 | – | – | – | – | –
16 | COc1cccc(C=NNc2cc(C)nc3c(OC)cccc23)c1 [TCMDC-142197] | 92.7 | – | – | – | – | –
17 | Cc1c(N=O)cc(C(C)(C)C)c(O)c1C(=O)Nc1ccc([N+](=O)[O-])cc1Cl [TCMDC-142233] | 32.7 | – | – | – | – | –
18 | Nc1c2c(nc3ccc(Oc4ccc(Br)cc4Br)cc13)CCCC2 [TCMDC-142286] | 91.6 | – | – | – | – | –
19 | COc1cccc2c(NN=Cc3ccccc3F)ccnc12 [TCMDC-142181] | -26 | – | – | – | – | –
20 | CCN(CC)CC(O)c1cc(-c2ccc(C)cc2)nc2c(C)cc(C)cc12 (stereo not shown) [TCMDC-142229] | -117 | – | – | – | – | –
21 | Nc1c2c(nc3ccc(C(=O)Nc4cc(I)c(O)c(I)c4)cc13)CCCC2 [TCMDC-142292] | -1.08 | – | – | – | – | –
22 | N=C(N)c1ccc(/C=C/c2ccc(C(=N)N)cc2O)cc1 [TCMDC-142178] | 1.54 | – | – | – | – | –

Row | Compound | inhibition at 5 µM [1, 4] [%] | Ratio IC50 HepG2/IC50 P. falciparum [2] | IC50 [2, 6] [µM] | IC50 (HepG2 cells) [nM] | IC50 [3] [nM] | further results
23 | COc1ccc(C=NNc2cc(C)nc3ccc(C)cc23)c2ccccc12 [TCMDC-142217] | 103 | – | – | – | – | –
24 | CC1(C)N=C(N)N=C(N)N1c1ccc2ccccc2c1 [TCMDC-142179] | -17.5 | – | – | – | – | –
25 | COc1ccc(C=NNc2c3ccccc3nc3ccccc23)c2ccccc12 [TCMDC-142231] | -139 | – | – | – | – | –
26 | FC(F)(F)c1ccc2nccc(NN=Cc3ccccc3Cl)c2c1 [TCMDC-142147] | -24.8 | – | – | – | – | –
27 | Cc1cc(F)ccc1Nc1nc(N(C)c2ccccc2)c2cccc(O)c2n1 [TCMDC-142331] | -52.7 | – | – | – | – | –
28 | CCNc1c2ccc(Cl)cc2nc2ccc(OC)cc12 [TCMDC-142190] | -21.5 | – | – | – | – | –
29 | Cc1cc(NN=Cc2ccccc2Cl)c2cc(C(F)(F)F)ccc2n1 [TCMDC-142154] | -77.2 | – | – | – | – | –
30 | CNCCc1c(O)ccc2ccccc12 [TCMDC-142244] | – | – | – | – | – | inhibition at 5 µM [1, 5]: -11.4%
31 | Cc1cc(NN=Cc2ccc(Cl)cc2)c2ccc(F)cc2n1 [TCMDC-142160] | -41.4 | – | – | – | – | –
32 | CN(C)CCCOc1ccc(-c2csc(NC(N)=NCc3ccccc3)n2)cc1 [TCMDC-142339] | 35.3 | – | – | – | – | –
33 | CCCCNC(c1ccc(Cl)cc1)C(O)c1ccc(Cl)cc1 (stereo not shown) [TCMDC-142227] | -29.7 | – | – | – | – | –
34 | CCN(CC)CCCC(C)Nc1c(-c2ccc(C)cc2)cnc2ccccc12 (stereo not shown) [TCMDC-142264] | 25.6 | – | – | – | – | –
35 | CCCC(=O)c1cnc2c(OCCCc3c[nH]cn3)cccc2c1Nc1c(C)cccc1C [TCMDC-142338] | 28.2 | – | – | – | – | –
36 | CCCCCCC(CC)c1cc(O)c2c(c1)OC(C)(C)c1ccncc1-2 (stereo not shown) [TCMDC-142258] | – | – | – | – | – | inhibition at 5 µM [1, 5]: -39.1%
37 | CN(C)CCN1CCN(CCCN2c3ccccc3Sc3ccc(C(F)(F)F)cc32)CC1 [TCMDC-142257] | – | – | – | – | – | % Inhibition ([1]; 48 h, 5 µM; inhibitor): 92.65%
38 | CC1=CC(=O)[C@@H](O)[C@]2(C)[C@H]3[C@@]4(O)OC[C@@]35[C@@H](C[C@@H]12)OC(=O)C[C@H]5[C@@H](C)[C@H]4O [TCMDC-142261] | – | – | – | – | – | inhibition at 5 µM [1, 5]: 50.1%
39 | CCOc1ccc2c(NN=Cc3ccccc3F)cc(C)nc2c1 [TCMDC-142193] | 98.2 | – | – | – | – | –
40 | COc1cccc2c(N/N=C/c3ccccc3[N+](=O)[O-])ccnc12 [TCMDC-142141] | 90.8 | – | – | – | – | –
41 | Cc1ccccc1Nc1nc(Nc2ccccc2)c2ccccc2n1 [TCMDC-142324] | 28.6 | – | – | – | – | –
42 | Fc1ccc2nccc(NN=Cc3ccccc3Cl)c2c1 [TCMDC-142122] | -2.19 | – | – | – | – | –
43 | Cc1ccc(C)c(NC(=O)CC2C(=O)N(c3ccccc3)C(=S)N2Cc2ccco2)c1 (stereo not shown) [TCMDC-124000] | – | >7.7 | 1.3 | > 10000 | 570 | –
44 | C=CCOc1ccc2ccccc2c1CNCCCCCCNCc1c(OCC=C)ccc2ccccc12 [TCMDC-137340] | – | <6 | 0.25 | < 1560 | 859 | –

Row | Compound | inhibition at 5 µM [1, 4] [%] | Ratio IC50 HepG2/IC50 P. falciparum [2] | IC50 [2, 6] [µM] | IC50 (HepG2 cells) [nM] | IC50 [3] [nM] | further results
45 | CC(C)NCc1ccc(OCc2cccc(COc3ccc(CNC(C)C)cc3I)c2)c(I)c1 [TCMDC-137259] | – | 23 | 0.21 | 4900 | 92 | –
46 | CC(=O)N(Cc1ccc(CC(C)NCCc2cccc(Cl)c2)cc1)Cc1ccc(CC(C)NCCc2cccc(Cl)c2)cc1 (stereo not shown) [TCMDC-139678] | – | 1.64 | 1.4 | 2300 | 783 | –
47 | COc1ccc(CCNC(C)Cc2ccc(C(=O)Nc3ccc(CC(C)NCCc4cccc(Cl)c4)cc3)cc2)cc1 (stereo not shown) [TCMDC-139750] | – | 4 | 0.62 | 2400 | 248 | –
48 | COc1cccc(CCNCCCCCCNCCc2ccc(Cl)cc2)c1 [TCMDC-131284] | – | 12 | 0.53 | 6100 | 1010 | –
49 | CCn1c(-c2nonc2N)nc2c(-c3cc4ccccc4s3)ncc(C(=O)N3CCC(N)C3)c21 (stereo not shown) [TCMDC-135281] | – | 10 | 0.35 | 3500 | 871 | –
50 | COc1cc2ccccc2cc1CCNCCCCNCCc1cc2ccccc2cc1OC [TCMDC-137944] | – | 32 | 0.11 | 3390 | 403 | IC50 [2, 7]: 0.105 µM
51 | CCCCCCOc1ccc2ccccc2c1CNCCCCCCNCc1c(OCCCCCC)ccc2ccccc12 [TCMDC-137963] | – | 7 | 0.48 | 3300 | 1060 | –
52 | CCCCc1ccc(CCNCCCCCCNCCc2ccc(O)c(O)c2)cc1 [TCMDC-131281] | – | 15 | 0.54 | 8190 | 1070 | IC50 [2, 7]: 0.545 µM
53 | COc1cc(Br)c(S(=O)(=O)n2cc(CN3CCC(N)CC3)c3cc(Cl)ccc32)cc1OC [TCMDC-136384] | – | 2.77 | 2.42 | 6700 | 985 | IC50 [2, 7]: 2.42 µM
54 | Cc1cc(NCCc2ccccc2)nc(/N=C(\N)Nc2ccccc2Cl)n1 [TCMDC-138370] | – | 2.79 | 4.87 | 13600 | 789 | –
55 | O=S(=O)(NCCN1CCCC1)c1cccc(-c2ccc(CNC3Cc4ccccc4C3)cc2)c1 [TCMDC-132241] | – | 3.72 | 2.15 | 8000 | 660 | –
56 | COc1ccc2ccc(OC)c(CNCCCCCCNCc3c(OC)ccc4ccc(OC)cc34)c2c1 [TCMDC-137796] | – | 12 | 0.29 | 3400 | 699 | IC50 [2, 7]: 0.285 µM
57 | O=C(O)CCSSc1cccc[n+]1[O-] [TCMDC-141973] | – | 29 | 0.27 | 7800 | 808 | –
58 | CC(C)(C)c1ccc(-c2nc3c(ccc4nc(N)nc(N)c43)[nH]2)cc1 [TCMDC-137984] | – | 19 | 0.21 | 3850 | 158 | IC50 [2, 7]: 0.205 µM
59 | NC(N)=NN=Cc1c2ccccc2c(Cl)c2cc(Cl)ccc12 [TCMDC-137903] | – | 3.2 | 2.35 | 7500 | 791 | IC50 [2, 7]: 2.35 µM
60 | CCOc1c(CCNCCCCNCCc2ccc3ccccc3c2OCC)ccc2ccccc12 [TCMDC-137759] | – | <9 | 0.17 | < 1560 | 596 | IC50 [2, 7]: 0.173 µM
61 | CCCCCCCn1c(=N)n(CC(O)c2ccc(Cl)c(Cl)c2)c2ccccc21 (stereo not shown) [TCMDC-124065] | – | 3 | 2.02 | 6000 | 782 | –
62 | O=C(C1CC1c1ccccc1)N(Cc1ccc(-c2ccc(CNCCc3ccccc3)cc2)cc1)C1CCNCC1 (stereo not shown) [TCMDC-141443] | – | 17 | 0.39 | 6700 | 1110 | IC50 [2, 7]: 0.385 µM
63 | CC(C)CNCc1cccc(-c2cccc(CN(CCCN3CCN(C)CC3)C(=O)CCC3CCCC3)c2)c1 [TCMDC-140554] | – | 7.58 | 0.6 | 4550 | 624 | –
64 | FC(F)(F)COc1ccc(CCNCCCCNCCc2ccc(OCC(F)(F)F)c3ccccc23)c2ccccc12 [TCMDC-137282] | – | 112 | 0.0267 | 3000 | 648 | IC50 [2, 7]: 0.027 µM
